How the values were obtained:
Hepatocyte = test: Cytotoxicity against mouse hepatocytes assessed as reduction in cell viability up to 3 uM measured after 24 hrs by MTT assay; assay type: cell-based
Heat shock protein HSP90 [1] = molecular target: T1, Heat shock protein HSP90 (Homo sapiens, UniProt P07900+P08238); test: Inhibition of HSP90 in human PC3 cells assessed as change in Chk1 expression at 5 uM measured after 2 to 12 hrs by Western blot analysis; assay type: cell-based; details: pc-3, 5 µM
Heat shock protein HSP90 [2] = molecular target: T1, Heat shock protein HSP90; test: Inhibition of HSP90 in human PC3 cells assessed as change in AKT expression at 5 uM measured after 2 to 12 hrs by Western blot analysis; assay type: cell-based; details: pc-3, 5 µM
[3] = molecular target: T2, Heat shock protein 75 kDa, mitochondrial (Homo sapiens, UniProt Q12931); test: Inhibition of PU-H71-FITC binding to recombinant wild-type human TRAP1 expressed in Escherichia coli BL21 (DE3) measured after 2 hrs by fluorescence polarization assay
T2 sequence (Q12931 whole entry): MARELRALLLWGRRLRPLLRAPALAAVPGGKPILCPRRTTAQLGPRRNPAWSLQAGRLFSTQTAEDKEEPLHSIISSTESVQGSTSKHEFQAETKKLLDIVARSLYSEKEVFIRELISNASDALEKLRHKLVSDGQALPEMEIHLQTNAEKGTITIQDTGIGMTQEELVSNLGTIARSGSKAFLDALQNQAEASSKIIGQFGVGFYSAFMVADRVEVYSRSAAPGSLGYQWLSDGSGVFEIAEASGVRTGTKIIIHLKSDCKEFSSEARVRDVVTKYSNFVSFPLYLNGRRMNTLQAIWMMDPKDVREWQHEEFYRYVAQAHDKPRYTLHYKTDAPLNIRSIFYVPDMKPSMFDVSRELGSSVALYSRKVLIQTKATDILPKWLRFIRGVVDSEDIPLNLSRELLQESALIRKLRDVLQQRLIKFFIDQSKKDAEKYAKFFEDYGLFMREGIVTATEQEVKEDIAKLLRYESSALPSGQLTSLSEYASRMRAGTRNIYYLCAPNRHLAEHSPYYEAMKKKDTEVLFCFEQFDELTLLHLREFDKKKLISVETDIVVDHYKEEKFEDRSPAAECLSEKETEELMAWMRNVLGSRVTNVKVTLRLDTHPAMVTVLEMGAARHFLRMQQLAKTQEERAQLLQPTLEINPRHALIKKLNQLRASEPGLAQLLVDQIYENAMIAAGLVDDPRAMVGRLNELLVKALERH

Heat shock protein HSP90 [4] = molecular target: T1, Heat shock protein HSP90; test: Inhibition of HSP90 in human PC3 cells assessed as change in Cdk4 expression at 5 uM measured after 2 to 12 hrs by Western blot analysis; assay type: cell-based; details: pc-3, 5 µM
Heat shock protein HSP90 [5] = molecular target: T1, Heat shock protein HSP90; test: Inhibition of HSP90 in human PC3 cells at 5 uM measured after 2 to 12 hrs by Western blot analysis; assay type: cell-based; details: pc-3, 5 µM
Heat shock protein HSP90 [6] = molecular target: T1, Heat shock protein HSP90; test: Inhibition of HSP90 in human PC3 cells assessed as change in Hsp70 expression at 5 uM measured after 2 to 12 hrs by Western blot analysis; assay type: cell-based; details: pc-3, 5 µM

Row | inhibition (INH) (Heat shock protein HSP90 [1]) | inhibition (INH) (Heat shock protein HSP90 [2]) | IC50 [3] [nM] | inhibition (INH) (Heat shock protein HSP90 [4]) | inhibition (INH) (Heat shock protein HSP90 [5]) | inhibition (INH) (Heat shock protein HSP90 [6]) | Structure (SMILES) | Activity (Hepatocyte)
1 | Not Active | Not Active | 1880 | Not Active | Not Active | Not Active | Nc1ncnc2c1nc(Sc1cc3c(cc1I)OCO3)n2CCCCCCCCCC[P+](c1ccccc1)(c1ccccc1)c1ccccc1.[Br-] | Non-Toxic
2 |  |  | 872 |  |  |  | Nc1ncnc2c1nc(Sc1cc3c(cc1I)OCO3)n2CCCCCCCC[P+](c1ccccc1)(c1ccccc1)c1ccccc1 | 
3 |  |  | 794 |  |  |  | Nc1ncnc2c1nc(Sc1cc3c(cc1I)OCO3)n2CCCCCC[P+](c1ccccc1)(c1ccccc1)c1ccccc1 | 

From ChEMBL document CHEMBL4602687, “Dual Binding to Orthosteric and Allosteric Sites Enhances the Anticancer Activity of a TRAP1-Targeting Drug” (J Med Chem, 2020)
